# From patent publication US20150328310A1, “METHODS AND COMPOSITIONS RELATING TO TREATMENT OF CANCER” (THE PENN STATE RESEARCH FOUNDATION, priority 2012, published 2015)
# Read-outs that look alike come from different tables or passages of the source.
# Key:
# [1] = test system: SW480 and RKO colon cancer cell lines; settings: estimated from the literature, dose used with ISC-4 in FIG. 2, cited from earlier work
# RKO = test: Cell viability assay of ISC-4 combined with approved antitumor agents, RKO; type: cell-based, human; set-up: key: uncooperative (−); cooperative (+); synergistic (*); ambiguous (?); settings: ISC-4 (1, 2, or 4 μM) plus therapy at putative EC12.5, EC25, EC50; compared to monoagent activity
# Procedure: (§1) Cell lines are obtained from ATCC and cultured in ATCC-recommended media in a humidified incubator at 5% CO2 and 37° C. For cell viability assays, cells are seeded into 96-well black-walled plates at a concentration of 1×10^5 cells per mL in fresh media and in a volume of 100 μL per well. Cells are allowed to adhere overnight and are treated the next day as indicated. At endpoint, CellTiter-Glo (Promega) assays are performed according to the manufacturer's protocol, and the bioluminescent readout is recorded on an IVIS imaging system (Xenogen).
# (§2) The SW480 and RKO human colon cancer cell lines are used for initial profiling based on their heterogeneous oncogenic genetic alterations.
# (§3) Combinatorial activities of ISC-4 and each listed drug are compared to monoagent activities of each drug alone by cell viability assays and determined to be uncooperative (−), cooperative (+), synergistic (*), or ambiguous (?).
# SW480 = test: Cell viability assay of ISC-4 combined with approved antitumor agents, SW480; type: cell-based, human; set-up: key: uncooperative (−); cooperative (+); synergistic (*); ambiguous (?); settings: ISC-4 (1, 2, or 4 μM) plus therapy at putative EC12.5, EC25, EC50; compared to monoagent activity
# Procedure: as §1, §2, §3
# [2] = test system: panel of human cancer cell lines; test: Cell viability assay of ISC-4 in a panel of human cancer cell lines (72 hr); type: cell-based; settings: human colon cancer cell lines with the exception of HT-29
# Procedure: as §1, with “(Xenogen). For cell synchronization, cells are incubated with 200 ng/mL nocodazole for 16 hours prior to treatment. Chloroquine is obtained from Sigma. zVAD-fmk is obtained from Promega and used at a working concentration of 25 μM. ISC-4 is synthesized as described in Sharma, A. K., et al., J. of Med. Chem., 2008, 51(24):7820-7826.” for “(Xenogen).”
# The in vitro activity of ISC-4 is tested in a panel of human cancer cell lines to characterize its spectrum of activity.
# The isogenic HCT116 cell lines indicate that ISC-4 activity is likely p53- and Bax-independent.
# [3] = Serum chemistry profiles of mice; type: in vivo; settings: serum 2 days after last dose; ISC-4 3 mg/kg i.p., cetuximab 10 mg/kg i.v., twice a week for 2 weeks
# Procedure: Athymic female nude mice (Charles River Laboratories) are inoculated with 1×10^6 of 5-FU-resistant RKO or HT-29 cells in each rear flank as a 200 μL suspension of 1:1 Matrigel (BD):PBS. Treatment is initiated once tumors reached a mean volume of […], intraperitoneal or intravenous injections are given at a total volume of 200 μL in DMSO. […] Tissue is paraffin-embedded and sectioned. H&E staining (Daiko) and TUNEL staining (Millipore) are carried out according to the manufacturer's protocols. For serum chemistry assays, 1 mL of blood is harvested from anesthetized mice by terminal cardiac puncture of the left ventricle. For serum chemistry, 500 μL is placed into a microfuge tube and allowed to clot for 30 minutes at room temperature followed by centrifugation. Serum is removed, centrifuged again to remove any additional debris prior to analysis.
# Serum was collected 2 days following the last dose.
# [4] = test system: human colon cancer cell lines; test: Cell cycle / sub-G1 DNA content analysis after ISC-4 treatment; type: cell-based
# Procedure: (§4) For sub-G1 DNA content analysis, cells are trypsinized at the indicated time points and fixed in 80% ethanol at 4° C. for a minimum of 30 minutes. Fixed cells are then stained with propidium iodide in the presence of RNase and analyzed on an Epics Elite flow cytometer (Beckman Coulter).
# The effect of ISC-4 treatment on cell cycle profiles of synchronous and asynchronous HCT116 (FIG. 1B) and HT-29 (FIG. 1C) cell lines is shown. […] Thus, ISC-4 has modest single agent activity against human colon cancer cells by causing cell death and a decrease in proliferation.
# RKO cells = test: Sub-G1 content by flow cytometry, combination; type: cell-based, human; settings: zVAD-fmk 25 μM
# Procedure: as §4
compound,measurement,setting,value
"O=c1[nH]cc(F)c(=O)[nH]1 [5-FU, 5-fluorouracil]",EC12.5,[1],4.5 µM
same,EC25,[1],9000 nM
same,EC50,[1]; read-out: EC50,18 µM
same,"Combinatorial effect of ISC-4 with the listed therapy, RKO",RKO,−
same,"Combinatorial effect of ISC-4 with the listed therapy, SW480",SW480,−
CC(C)C[C@H](NC(=O)[C@H](Cc1ccccc1)NC(=O)c1cnccn1)B(O)O [Bortezomib],"Combinatorial effect of ISC-4 with the listed therapy, RKO",RKO,+
same,"Combinatorial effect of ISC-4 with the listed therapy, SW480",SW480,?
N.N.[Cl][Pt][Cl] [Cisplatin],EC12.5,[1],1.125 µM
same,EC25,[1],2250 nM
same,EC50,[1]; read-out: EC50,4.5 µM
same,"Combinatorial effect of ISC-4 with the listed therapy, RKO",RKO,−
same,"Combinatorial effect of ISC-4 with the listed therapy, SW480",SW480,+
Nc1nc(Cl)nc2c1ncn2[C@H]1C[C@H](O)[C@@H](CO)O1 [Cladribine],EC12.5,[1],0.025 µM
same,EC25,[1],50 nM
same,EC50,[1]; read-out: EC50,0.1 µM
same,"Combinatorial effect of ISC-4 with the listed therapy, RKO",RKO,−
same,"Combinatorial effect of ISC-4 with the listed therapy, SW480",SW480,−
CC(=O)O[C@@]12CO[C@@H]1C[C@H](O)[C@@]1(C)C(=O)[C@H](O)C3=C(C)[C@@H](OC(=O)[C@H](O)[C@@H](NC(=O)OC(C)(C)C)c4ccccc4)C[C@@](O)([C@@H](OC(=O)c4ccccc4)[C@H]21)C3(C)C [Docetaxel],EC12.5,[1],2.5 µM
same,EC25,[1],5000 nM
same,EC50,[1]; read-out: EC50,10 µM
same,"Combinatorial effect of ISC-4 with the listed therapy, RKO",RKO,−
same,"Combinatorial effect of ISC-4 with the listed therapy, SW480",SW480,−
COc1cccc2c1C(=O)c1c(O)c3c(c(O)c1C2=O)C[C@@](O)(C(=O)CO)C[C@@H]3O[C@H]1C[C@H](N)[C@H](O)[C@H](C)O1 [Doxorubicin],EC12.5,[1],16.25 µM
same,EC25,[1],32500 nM
same,EC50,[1]; read-out: EC50,65 µM
same,"Combinatorial effect of ISC-4 with the listed therapy, RKO",RKO,?
same,"Combinatorial effect of ISC-4 with the listed therapy, SW480",SW480,−
COc1cc([C@@H]2c3cc4c(cc3[C@@H](O[C@@H]3O[C@@H]5CO[C@@H](C)O[C@H]5[C@H](O)[C@H]3O)[C@H]3COC(=O)[C@H]23)OCO4)cc(OC)c1O [Etoposide],EC12.5,[1],1.25 µM
same,EC25,[1],2500 nM
same,EC50,[1]; read-out: EC50,5 µM
same,"Combinatorial effect of ISC-4 with the listed therapy, RKO",RKO,−
same,"Combinatorial effect of ISC-4 with the listed therapy, SW480",SW480,−
COc1cc2ncnc(Nc3ccc(F)c(Cl)c3)c2cc1OCCCN1CCOCC1 [Gefitinib],EC12.5,[1],5.75 µM
same,EC25,[1],11500 nM
same,"Combinatorial effect of ISC-4 with the listed therapy, RKO",RKO,+
same,"Combinatorial effect of ISC-4 with the listed therapy, SW480",SW480,+
Nc1ccn([C@@H]2O[C@H](CO)[C@@H](O)C2(F)F)c(=O)n1 [Gemcitabine],EC12.5,[1],0.5 µM
same,EC25,[1],1000 nM
same,EC50,[1]; read-out: EC50,2 µM
same,"Combinatorial effect of ISC-4 with the listed therapy, RKO",RKO,+
same,"Combinatorial effect of ISC-4 with the listed therapy, SW480",SW480,−
[Se]=C=NCCCCc1ccccc1 [ISC-4],Sensitivity to ISC-4 treatment,[2],moderately sensitive
same,ALT,[3],29 ± 2 U/L
same,AST,[3],221 ± 138 U/L
same,Alk. Phos. (alkaline phosphatase),[3],35 ± 10 U/L
same,BUN (blood urea nitrogen),[3],22 ± 1 mg/dL
same,Cl,[3],107 ± 3 mmol/L
same,Creatinine,[3],0.1 ± 0 mg/dL
same,Glucose,[3],309 ± 8 mg/dL
same,K,[3],4.8 ± .1 mmol/L
same,LDH (lactate dehydrogenase),[3],1074 ± 531 U/L
same,Na,[3],155 ± 2 mmol/L
same,T. Bil (total bilirubin),[3],0.65 ± 0.07 mg/dL
same,Concentration at which ISC-4-induced sub-G1 content becomes apparent,"[4]; colon cancer cell lines, 0, 1, 2, 4, 8, or 16 μM ISC-4, dose-dependent",> 8 µM
same,Sub-G1 content,[4]; synchronized HCT116 and HT-29 cells,modest increase in sub-G1 content
same,ISC-4-induced sub-G1 content on co-incubation with pan-caspase inhibitor zVAD-fmk,RKO cells,significantly inhibited
CCc1c2c(nc3ccc(OC(=O)N4CCC(N5CCCCC5)CC4)cc13)-c1cc3c(c(=O)n1C2)COC(=O)[C@]3(O)CC [Irinotecan],EC12.5,[1],3.38 µM
same,EC25,[1],6750 nM
same,EC50,[1]; read-out: EC50,13 µM
same,"Combinatorial effect of ISC-4 with the listed therapy, RKO",RKO,−
same,"Combinatorial effect of ISC-4 with the listed therapy, SW480",SW480,−
CS(=O)(=O)CCNCc1ccc(-c2ccc3ncnc(Nc4ccc(OCc5cccc(F)c5)c(Cl)c4)c3c2)o1 [Lapatinib],EC12.5,[1],1.75 µM
same,EC25,[1],3500 nM
same,EC50,[1]; read-out: EC50,7 µM
same,"Combinatorial effect of ISC-4 with the listed therapy, RKO",RKO,−
same,"Combinatorial effect of ISC-4 with the listed therapy, SW480",SW480,−
O=C1[O][Pt]2([NH][C@@H]3CCCC[C@H]3[NH]2)[O]C1=O [Oxaliplatin],EC12.5,[1],0.075 µM
same,EC25,[1],150 nM
same,EC50,[1]; read-out: EC50,0.3 µM
same,"Combinatorial effect of ISC-4 with the listed therapy, RKO",RKO,−
same,"Combinatorial effect of ISC-4 with the listed therapy, SW480",SW480,−
CC(=O)O[C@H]1C(=O)[C@@]2(C)[C@H]([C@H](OC(=O)c3ccccc3)[C@]3(O)C[C@H](OC(=O)[C@H](O)[C@@H](NC(=O)c4ccccc4)c4ccccc4)C(C)=C1C3(C)C)[C@]1(OC(C)=O)CO[C@@H]1C[C@@H]2O [Paclitaxel],EC12.5,[1],0.0025 µM
same,EC25,[1],5 nM
same,EC50,[1]; read-out: EC50,0.01 µM
same,"Combinatorial effect of ISC-4 with the listed therapy, RKO",RKO,−
same,"Combinatorial effect of ISC-4 with the listed therapy, SW480",SW480,−
Nc1nc2[nH]cc(CCc3ccc(C(=O)N[C@@H](CCC(=O)O)C(=O)O)cc3)c2c(=O)[nH]1 [Pemetrexed],EC12.5,[1],0.25 µg/mL
same,EC25,[1],0.5 µg/mL
same,EC50,[1],1 µg/mL
same,"Combinatorial effect of ISC-4 with the listed therapy, RKO",RKO,−
same,"Combinatorial effect of ISC-4 with the listed therapy, SW480",SW480,−
CNC(=O)c1cc(Oc2ccc(NC(=O)Nc3ccc(Cl)c(C(F)(F)F)c3)cc2)ccn1 [Sorafenib],EC12.5,[1],8 µM
same,EC25,[1],16000 nM
same,EC50,[1]; read-out: EC50,32 µM
same,"Combinatorial effect of ISC-4 with the listed therapy, RKO",RKO,+
same,"Combinatorial effect of ISC-4 with the listed therapy, SW480",SW480,+
CC[C@]1(O)C[C@H]2CN(CCc3c([nH]c4ccccc34)[C@@](C(=O)OC)(c3cc4c(cc3OC)N(C=O)[C@H]3[C@@](O)(C(=O)OC)[C@H](OC(C)=O)[C@]5(CC)C=CCN6CC[C@]43[C@@H]65)C2)C1 [Vincristine],EC12.5,[1],3.5e-05 µM
same,EC25,[1],.07 nM
same,EC50,[1]; read-out: EC50,0.00014 µM
same,"Combinatorial effect of ISC-4 with the listed therapy, RKO",RKO,−
same,"Combinatorial effect of ISC-4 with the listed therapy, SW480",SW480,−
Panitumumab,EC12.5,[1],0.75 µg/mL
same,EC25,[1],1.5 µg/mL
same,EC50,[1],3 µg/mL
same,"Combinatorial effect of ISC-4 with the listed therapy, RKO",RKO,−
same,"Combinatorial effect of ISC-4 with the listed therapy, SW480",SW480,−
